Source: ChEMBL document CHEMBL1201862, “PubChem BioAssay data set” (2004)
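Values below derive from 48-hour exposures of cells grown in 96-well plates, with endpoints linearly interpolated between the two concentrations bracketing the appropriate inhibition level. The concentration for 50% growth inhibition is given as GI50.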 Calls of active or inactive are those of the source. Rule as the data show it: active = GI50 up to about 1.1 µM and inactive = higher.

Experiments:
Assay in all cases: NCI-60 cell line screen, 48 h
SK-MEL-28 = test system: SK-MEL-28
TK-10 = test system: TK-10
NCI-H226 = test system: NCI-H226
SF-539 = test system: SF-539
EKVX = test system: EKVX
OVCAR-4 = test system: OVCAR-4
UACC-257 = test system: UACC-257
A498 = test system: A498
IGROV-1 = test system: IGROV-1
NCI-H460 = test system: NCI-H460
SN12C = test system: SN12C
786-0 = test system: 786-0
RPMI-8226 = test system: RPMI-8226
HT-29 = test system: HT-29
UO-31 = test system: UO-31
SNB-75 = test system: SNB-75
K562 = test system: K562

Measured: GI50

CCCCCC(=O)OCCOCCOCCOCCOCCOCc1ccccc1
inactive: SK-MEL-28 > 100 µM | TK-10 > 100 µM | NCI-H226 > 100 µM | SF-539 > 100 µM | EKVX > 100 µM | OVCAR-4 > 100 µM | UACC-257 > 100 µM | A498 > 100 µM | IGROV-1 > 100 µM | NCI-H460 > 100 µM | SN12C > 100 µM | 786-0 > 100 µM

Cc1cc2c(c(C(=O)O)c1C)-c1cccc(Cl)c1C2=O
inactive: RPMI-8226 > 100 µM | SK-MEL-28 > 100 µM | TK-10 > 100 µM | NCI-H226 > 100 µM | HT-29 > 100 µM | EKVX > 100 µM | UO-31 > 100 µM | OVCAR-4 > 100 µM | UACC-257 > 100 µM | IGROV-1 > 100 µM | NCI-H460 > 100 µM | SN12C > 100 µM | SNB-75 > 100 µM | 786-0 > 100 µM | K562 > 100 µM

CCN(CC)c1ccc(/N=C2/C=CC(=C(C#N)C#N)c3ccccc32)c(C)c1
inactive: RPMI-8226 1.38 µM | SK-MEL-28 1.64 µM | TK-10 3.25 µM | HT-29 3.24 µM | EKVX 3.21 µM | UO-31 2.29 µM | OVCAR-4 1.88 µM | UACC-257 2.16 µM | IGROV-1 2.73 µM | NCI-H460 2.55 µM | SN12C 2.53 µM | SNB-75 1.33 µM | 786-0 2.22 µM | K562 1.56 µM

Cc1cccc2[n+]1[C@H]1[C@H]([C@@H]3O[C@H]1c1ccccc13)[S+]([O-])N2 (stereo partly specified)
inactive: RPMI-8226 10.8 µM | SK-MEL-28 > 100 µM | TK-10 90.4 µM | HT-29 34.4 µM | SF-539 77.6 µM | EKVX 44.4 µM | UO-31 64.7 µM | UACC-257 32.5 µM | A498 93.3 µM | IGROV-1 32.3 µM | NCI-H460 25 µM | SNB-75 58.5 µM | 786-0 > 100 µM | K562 23 µM

C=CCN(N=O)C(=O)N(CCCC(NC(C)=O)C(=O)NCc1ccccc1)Cc1ccccc1 (stereo unspecified)
inactive: RPMI-8226 18.2 µM | SK-MEL-28 79.4 µM | TK-10 87.1 µM | HT-29 24.2 µM | SF-539 37.2 µM | EKVX 58.2 µM | UO-31 33.1 µM | OVCAR-4 36.1 µM | UACC-257 57.7 µM | A498 99.3 µM | IGROV-1 > 100 µM | NCI-H460 55.8 µM | SN12C 67.6 µM | SNB-75 39 µM | 786-0 80.5 µM | K562 37 µM
